Tests used:
[1] = Light generation from compounds following incubation with hydrogen peroxide in different pH solutions (D-cysteine conversion, LDR); assay type: biochemical; details: for Signal to Background Ratios: signal with peroxide to background no peroxide
Procedure, shortened: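 Compounds were diluted from 4 mg/ml DMSO stocks and incubated 60 min at room temperature in Tris pH 7.6, 8.8 or 10.4, with or without 40 μM H2O2 (solution concentration). Aliquots then went into D-cysteine conversion solution for 5 min before LDR luminescence. Duplicates were averaged and compared with no-peroxide wells at the same pH as signal-to-background.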

[2] = Signal strength differences due to reaction pH and buffer composition (hydrogen peroxide, D-cysteine conversion, LDR); assay type: biochemical; details: for Net Average Signals at 15 Minutes / Net Average Signals at 60 Minutes / Net Average Signals at 105 Minutes: 100 μl of 10 μM H2O2 added
Method: A 30 μl sample of 4 mg/ml PBI 4458 in DMSO was diluted to 1.5 ml with Nanopure water, and 50 μl added to wells A1-12 and E1-12 of a microtiter plate. A 30 μl sample of 4 mg/ml PBI 4472 in DMSO was diluted to 1.5 ml with Nanopure, and 50 μl added to wells B1-12 and F1-12 of the plate. A 30 μl sample of 4 mg/ml PBI 4480 in DMSO was diluted to 1.5 ml with Nanopure water, and 50 μl added to wells C1-12 and G1-12 of the plate. A 30 μl sample of 4 mg/ml PBI 4481 in DMSO was diluted to 1.5 ml with Nanopure water, and 50 μl added to wells D1-12 and H1-12 of the plate. To the plate, a 50 μl sample of 200 mM KHPO4, pH 7.4 was added to wells A1-D4; 50 μl 200 mM Tris buffer, pH 7.4 was added to wells A5-D8; 50 μl 250 mM HEPES buffer, pH 7.5 was added to wells A9-D12; 50 μl 200 mM KHPO4 buffer, pH 9.2 was added to wells E1-H4; 50 μl 250 mM Tris buffer, pH 10.4 was added to wells E5-H8; and 50 μl 100 mM CAPS buffer, pH 10.4 was added to wells E9-H12.
A sample of hydrogen peroxide (30%, Sigma, H1009-5 ml) was diluted to 10 μM with Nanopure water, and 100 μl added to columns 3, 4, 7, 8, 11, 12 wells A-H of the plate. 100 μl Nanopure water was added to columns 1, 2, 5, 6, 9 and 10 of the plate. The plate was incubated at room temperature for 15 minutes.
A conversion solution was made by mixing 5 ml of 1 M HEPES buffer, pH 7.5, 4.9 ml of Nanopure water and 100 μl of 100 mM D-cysteine (in Nanopure water), and […] added to all wells of a luminometer plate.
After incubation, 25 μl of sample from all wells in the plate was transferred and mixed into the corresponding wells in the luminometer plate, incubated 2-3 minutes at room temperature, and 50 μl LDR (Example 23) added. The luminometer plate was incubated for 15 minutes at room temperature, and bioluminescence detected on a GloMax® luminometer.
Additional samples were taken at 60 and 105 minutes and added to a fresh luminometer plates containing 25 μl of conversion solution in all wells. The plates were then incubated for 15 minutes at room temperature, and bioluminescence detected as previously described.

CC1(C)OB(c2ccc(COc3ccc4nc(C#N)sc4c3)c3ccccc23)OC1(C)C [PBI 4480, 6-((4-(4,4,5,5-tetramethyl-1,3,2-dioxaborolan-2-yl)naphthalen-1-yl)methoxy)benzo[d]thiazole-2-carbonitrile]
Signal to Background Ratios ([1]; pH 7.6): 4.5
averaged RLUs (bioluminescence) ([1]; pH 7.6 TRIS buffer, No H2O2, 60 minutes): 146,664 RLU
averaged RLUs (bioluminescence) ([1]; pH 7.6 TRIS buffer, With H2O2 (25 μl of 40 μM added), 60 minutes): 657,132 RLU
Signal to Background Ratios ([1]; pH 8.8): 8.7
averaged RLUs (bioluminescence) ([1]; pH 8.8 TRIS buffer, No H2O2, 60 minutes): 179,821 RLU
averaged RLUs (bioluminescence) ([1]; pH 8.8 TRIS buffer, With H2O2 (25 μl of 40 μM added), 60 minutes): 1,563,422 RLU
Signal to Background Ratios ([1]; pH 10.4): 20.0
averaged RLUs (bioluminescence) ([1]; pH 10.4 Tris buffer, No H2O2, 60 minutes): 265,315 RLU
averaged RLUs (bioluminescence) ([1]; pH 10.4 Tris buffer, With H2O2 (25 μl of 40 μM added), 60 minutes): 5,295,463 RLU
Signal to Background Ratios at 15 Minutes ([2]; CAPS pH 10.4, 15 minutes): 12.1
Net Average Signals at 15 Minutes ([2]; CAPS pH 10.4, 15 minutes): 1,799,015 RLU
Signal to Background Ratios at 60 Minutes ([2]; CAPS pH 10.4, 60 minutes): 14.7
Net Average Signals at 60 Minutes ([2]; CAPS pH 10.4, 60 minutes): 4,256,769 RLU
Signal to Background Ratios at 105 Minutes ([2]; CAPS pH 10.4, 105 minutes): 12.6
Net Average Signals at 105 Minutes ([2]; CAPS pH 10.4, 105 minutes): 7,150,225 RLU
Signal to Background Ratios at 15 Minutes ([2]; HEPES pH 7.5, 15 minutes): 1.0
Net Average Signals at 15 Minutes ([2]; HEPES pH 7.5, 15 minutes): −234 RLU
Signal to Background Ratios at 60 Minutes ([2]; HEPES pH 7.5, 60 minutes): 1.7
Net Average Signals at 60 Minutes ([2]; HEPES pH 7.5, 60 minutes): 29,727 RLU
Signal to Background Ratios at 105 Minutes ([2]; HEPES pH 7.5, 105 minutes): 2.3
Net Average Signals at 105 Minutes ([2]; HEPES pH 7.5, 105 minutes): 75,066 RLU
Net Average Signals at 15 Minutes ([2]; KPO4 Ph 7.4, 15 minutes): 3,538 RLU
Signal to Background Ratios at 15 Minutes ([2]; KPO4 pH 7.4, 15 minutes): 1.1
Signal to Background Ratios at 60 Minutes ([2]; KPO4 pH 7.4, 60 minutes): 1.6
Net Average Signals at 60 Minutes ([2]; KPO4 pH 7.4, 60 minutes): 38,198 RLU
Signal to Background Ratios at 105 Minutes ([2]; KPO4 pH 7.4, 105 minutes): 1.9
Net Average Signals at 105 Minutes ([2]; KPO4 pH 7.4, 105 minutes): 86,881 RLU
Signal to Background Ratios at 15 Minutes ([2]; KPO4 pH 9.2, 15 minutes): 1.7
Net Average Signals at 15 Minutes ([2]; KPO4 pH 9.2, 15 minutes): 37,330 RLU
Signal to Background Ratios at 60 Minutes ([2]; KPO4 pH 9.2, 60 minutes): 3.6
Net Average Signals at 60 Minutes ([2]; KPO4 pH 9.2, 60 minutes): 218,078 RLU
Signal to Background Ratios at 105 Minutes ([2]; KPO4 pH 9.2, 105 minutes): 5.1
Net Average Signals at 105 Minutes ([2]; KPO4 pH 9.2, 105 minutes): 587,867 RLU
Signal to Background Ratios at 15 Minutes ([2]; TRIS pH 10.4, 15 minutes): 11.1
Net Average Signals at 15 Minutes ([2]; TRIS pH 10.4, 15 minutes): 743,427 RLU
Signal to Background Ratios at 60 Minutes ([2]; TRIS pH 10.4, 60 minutes): 17.9
Net Average Signals at 60 Minutes ([2]; TRIS pH 10.4, 60 minutes): 1,903,885 RLU
Signal to Background Ratios at 105 Minutes ([2]; TRIS pH 10.4, 105 minutes): 17.5
Net Average Signals at 105 Minutes ([2]; TRIS pH 10.4, 105 minutes): 3,541,742 RLU
Signal to Background Ratios at 15 Minutes ([2]; Tris pH 7.4, 15 minutes): 1.2
Net Average Signals at 15 Minutes ([2]; Tris pH 7.4, 15 minutes): 7,845 RLU
Signal to Background Ratios at 60 Minutes ([2]; Tris pH 7.4, 60 minutes): 2.0
Net Average Signals at 60 Minutes ([2]; Tris pH 7.4, 60 minutes): 61,031 RLU
Signal to Background Ratios at 105 Minutes ([2]; Tris pH 7.4, 105 minutes): 2.6
Net Average Signals at 105 Minutes ([2]; Tris pH 7.4, 105 minutes): 162,663 RLU

Reference: US8937183B2, “Detection of hydrogen peroxide” (Promega Corporation, priority 2011, dated 2015)
